Source: patent US20140221499A1, “NOVEL RODENT CONTROL AGENTS AND USES THEREOF” (priority 2011, published 2014)

Legend:
[1] = target: T1, mouse TAAR3 (Mus musculus, UniProt Q5QD16); assay: TAAR3 CRE-SEAP reporter gene assay in transfected HEK293 cells; type: cell-based
T1 construct: Full Taar coding regions were cloned into pcDNA3.1-(Invitrogen); expressed in transfected cells; host or cells: HEK293
T1 sequence (Q5QD16 1-343): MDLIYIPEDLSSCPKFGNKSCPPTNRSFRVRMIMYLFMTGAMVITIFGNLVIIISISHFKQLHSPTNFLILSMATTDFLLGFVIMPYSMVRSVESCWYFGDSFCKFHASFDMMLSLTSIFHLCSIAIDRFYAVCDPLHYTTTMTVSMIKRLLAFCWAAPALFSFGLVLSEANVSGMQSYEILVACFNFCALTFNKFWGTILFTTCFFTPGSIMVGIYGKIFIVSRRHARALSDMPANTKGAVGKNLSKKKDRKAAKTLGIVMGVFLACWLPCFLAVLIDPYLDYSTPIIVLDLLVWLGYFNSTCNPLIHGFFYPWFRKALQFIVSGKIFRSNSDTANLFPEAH
Protocol: Reporter gene assays were performed on HEK293 cells transfected with mouse TAAR3 and CRE-SEAP.
TAAR functional assays. Reporter gene assays were performed as described (Liberles S D & Buck LB (2006) A second class of chemosensory receptors in the olfactory epithelium. Nature 442(7103):645-650) with the following minor modifications. Test urines were diluted in serum-free media containing penicillin G (100 Units/ml, Invitrogen) and streptomycin sulfate ([…], Invitrogen). SEAP activity is measured as fluorescence resulting from dephosphorylation of a substrate, 4-methylumbelliferyl phosphate. Fluorescence values were obtained using an EnVision plate reader (Perkin Elmer) and are reported directly without normalization. All TAARs, except mouse TAAR3, were expressed as fusion proteins with an N-terminal sequence of bovine rhodopsin (Krautwurst D, Yau K W, & Reed R R (1998) Identification of ligands for olfactory receptors by functional expression of a receptor library. Cell 95(7):917-926).

[2] = target: T2, rTAAR7d (Rattus norvegicus, UniProt Q923X5); assay: CRE-SEAP reporter gene assay in HEK293 cells transfected with rTAAR7d; type: cell-based; design: Full Taar coding regions were cloned into pcDNA3.1; expressed in transfected cells; host or cells: HEK293; conditions: FIG. 11A, functional with or without 'Rho tag', EC50 ± s.e.m., 4-parameter Hill equation
T2 sequence (Q923X5 1-358): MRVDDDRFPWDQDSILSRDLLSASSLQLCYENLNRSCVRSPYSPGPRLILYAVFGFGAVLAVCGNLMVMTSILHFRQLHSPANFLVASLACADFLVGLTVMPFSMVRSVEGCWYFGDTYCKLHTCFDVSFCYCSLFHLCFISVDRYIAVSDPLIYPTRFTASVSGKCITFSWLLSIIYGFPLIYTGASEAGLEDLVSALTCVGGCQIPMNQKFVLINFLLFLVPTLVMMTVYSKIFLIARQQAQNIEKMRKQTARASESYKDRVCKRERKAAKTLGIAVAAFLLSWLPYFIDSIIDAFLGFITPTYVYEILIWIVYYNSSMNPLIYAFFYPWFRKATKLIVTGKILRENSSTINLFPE
Protocol: FIG. 11 illustrates the dose-dependent responses of TAARs to amines. HEK293 cells were cotransfected with plasmids encoding CRE-SEAP and rTAARs (a) or mTAARs (b), incubated with concentrations of ligands indicated, and assayed for reporter activity (triplicates±s.d.). EC50 values (±s.e.m, bottom right) were calculated using SigmaPlot (Systat Software) and a 4-parameter Hill equation.
The following mixes (10 μM of each indicated compounds) were tested for their ability to activate rat TAARs. Mix 1: butylamine, dibutylamine, hexylamine. Mix 2: 2-aminopentane, isoamylamine, isobutylamine, isopropylamine. Mix 3: N,N-dimethylcyclohexylamine, 1-methylindole, tryptamine, phenylethylamine. Mix 4: indole, 1-methylpyrrolidine, 1-methylpiperidine, pyrrolidine. […]
Full Taar coding regions were cloned into pcDNA3.1-(Invitrogen) with or without a 5′ DNA extension of 69 bp encoding the first 20 amino acids of bovine rhodopsin followed by a cloning linker ([…]). […] Fluorescence was measured on an EnVision plate reader (Perkin Elmer) and SEAP activity graphed as relative fluorescence of a phosphatase substrate.
Here, we set out to identify agonists for additional mouse and rat TAARs. […] Transfected cells were incubated with test chemicals, and phosphatase activity was quantified with a fluorescent substrate as a reporter for TAAR activation. […]

| SMILES | EC50 [1] [µM] | reduced sensitivity of TAAR3 compared to TAAR4 ([1]; TAAR3 vs TAAR4) [fold] | EC50 [2] [µM] |
| --- | --- | --- | --- |
| NCCc1ccccc1 [2-phenylethylamine] | ~100 | 30 |  |
| CN(C)C1CCCCC1 [N,N-DIMETHYLCYCLOHEXYLAMINE, N,N-dimethylcyclohexylamine] |  |  | 4.6 ± 1.1 |
